Results on 8 compounds are retold here after ChEMBL document CHEMBL3414499, “Characterization of two distinct structural classes of selective aldehyde dehydrogenase 1A1 inhibitors” (J Med Chem, 2015).

Active and inactive are the calls of the source. The rule behind the calls is not given here.

Assay [1] has as its target T1, Aldehyde dehydrogenase 1A1 (Homo sapiens) (UniProt P00352).
T1 sequence (whole entry): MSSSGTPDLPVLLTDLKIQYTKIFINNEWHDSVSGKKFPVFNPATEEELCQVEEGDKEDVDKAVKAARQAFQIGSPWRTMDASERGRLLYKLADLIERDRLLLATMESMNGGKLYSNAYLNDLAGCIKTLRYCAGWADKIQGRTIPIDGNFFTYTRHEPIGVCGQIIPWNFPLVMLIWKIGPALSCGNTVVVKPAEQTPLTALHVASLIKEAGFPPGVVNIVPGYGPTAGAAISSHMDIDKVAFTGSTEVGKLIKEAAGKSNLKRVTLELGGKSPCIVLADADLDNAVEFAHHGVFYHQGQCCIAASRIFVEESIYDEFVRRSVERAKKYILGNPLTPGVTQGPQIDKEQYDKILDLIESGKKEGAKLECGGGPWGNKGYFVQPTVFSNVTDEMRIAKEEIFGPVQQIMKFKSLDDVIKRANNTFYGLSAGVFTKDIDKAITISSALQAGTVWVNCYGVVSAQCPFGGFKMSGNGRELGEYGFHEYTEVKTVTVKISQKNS
Nature of the assay: Effect on recombinant human ALDH1A1 using propionaldehyde as substrate up to 250 uM preincubated for 2 mins with NAD+ followed by substrate addition by UV-Vis spectrophotometric analysis.

The target in assay [2] is T2, Aldehyde dehydrogenase, mitochondrial (Homo sapiens) (UniProt P05091).
T2 sequence (whole entry): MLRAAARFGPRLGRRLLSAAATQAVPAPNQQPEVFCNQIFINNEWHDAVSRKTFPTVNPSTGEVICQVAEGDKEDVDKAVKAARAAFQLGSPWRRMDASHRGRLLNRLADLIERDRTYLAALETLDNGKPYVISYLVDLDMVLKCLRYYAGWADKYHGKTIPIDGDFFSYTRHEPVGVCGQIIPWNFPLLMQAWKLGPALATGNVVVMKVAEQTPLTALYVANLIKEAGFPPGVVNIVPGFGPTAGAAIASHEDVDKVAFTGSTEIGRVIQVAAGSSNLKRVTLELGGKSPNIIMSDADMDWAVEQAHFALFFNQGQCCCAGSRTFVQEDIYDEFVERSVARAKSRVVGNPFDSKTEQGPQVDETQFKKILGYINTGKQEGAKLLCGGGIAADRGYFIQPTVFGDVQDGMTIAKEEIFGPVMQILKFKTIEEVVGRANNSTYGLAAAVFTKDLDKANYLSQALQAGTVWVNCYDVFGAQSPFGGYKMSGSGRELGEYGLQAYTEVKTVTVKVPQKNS
Put plainly: Inhibition of recombinant human ALDH2 using propionaldehyde as substrate at 100 uM preincubated for 2 mins with NAD+ followed by substrate addition by UV-Vis spectrophotometric analysis.

In assay [3] the target is T3, Aldehyde dehydrogenase, dimeric NADP-preferring (Homo sapiens) (UniProt P30838).
T3 sequence (whole entry): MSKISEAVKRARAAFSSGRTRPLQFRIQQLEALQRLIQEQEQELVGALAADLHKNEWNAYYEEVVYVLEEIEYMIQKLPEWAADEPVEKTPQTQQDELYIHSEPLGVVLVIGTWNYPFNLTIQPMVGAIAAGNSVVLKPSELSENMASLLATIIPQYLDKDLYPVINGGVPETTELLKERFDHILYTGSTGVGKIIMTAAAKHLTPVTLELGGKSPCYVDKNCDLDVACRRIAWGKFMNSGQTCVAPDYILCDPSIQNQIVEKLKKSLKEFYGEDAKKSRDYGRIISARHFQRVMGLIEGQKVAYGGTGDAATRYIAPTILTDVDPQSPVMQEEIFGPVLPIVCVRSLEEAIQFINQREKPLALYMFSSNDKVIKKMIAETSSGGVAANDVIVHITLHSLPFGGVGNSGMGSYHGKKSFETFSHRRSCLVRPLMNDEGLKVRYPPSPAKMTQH
Nature of the assay: Inhibition of recombinant human ALDH3A1 using benzaldehyde as substrate at 100 uM preincubated for 2 mins with NAD+ followed by substrate addition by UV-Vis spectrophotometric analysis.

The target in assay [4] is T4, Retinal dehydrogenase 2 (Homo sapiens) (UniProt O94788).
T4 sequence (whole entry): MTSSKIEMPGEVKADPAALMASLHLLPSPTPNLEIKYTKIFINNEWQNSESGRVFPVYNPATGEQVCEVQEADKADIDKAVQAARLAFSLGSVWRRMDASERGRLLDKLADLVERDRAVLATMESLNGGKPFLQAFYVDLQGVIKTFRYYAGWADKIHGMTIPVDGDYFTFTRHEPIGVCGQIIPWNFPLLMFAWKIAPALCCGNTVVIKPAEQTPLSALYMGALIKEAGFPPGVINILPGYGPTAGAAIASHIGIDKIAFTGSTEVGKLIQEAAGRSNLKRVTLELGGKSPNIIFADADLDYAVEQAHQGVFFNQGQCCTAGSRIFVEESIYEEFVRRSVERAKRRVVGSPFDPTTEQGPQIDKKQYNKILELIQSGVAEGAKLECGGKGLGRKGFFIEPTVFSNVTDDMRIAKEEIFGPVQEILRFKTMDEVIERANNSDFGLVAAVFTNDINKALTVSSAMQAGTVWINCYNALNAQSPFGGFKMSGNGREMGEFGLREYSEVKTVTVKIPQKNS
Put plainly: Inhibition of recombinant human ALDH1A2 using propionaldehyde as substrate at 100 uM preincubated for 2 mins with NAD+ followed by substrate addition by UV-Vis spectrophotometric analysis.

For assay [5], the target named is T1, Aldehyde dehydrogenase 1A1 (Homo sapiens). Put plainly: Inhibition of recombinant human ALDH1A1 using propionaldehyde as substrate at 100 uM preincubated for 2 mins with NAD+ followed by substrate addition by UV-Vis spectrophotometric analysis relative to control.
Assay [6] concerns the target T5, Retinaldehyde dehydrogenase 3 (Homo sapiens) (UniProt P47895).
T5 sequence (whole entry): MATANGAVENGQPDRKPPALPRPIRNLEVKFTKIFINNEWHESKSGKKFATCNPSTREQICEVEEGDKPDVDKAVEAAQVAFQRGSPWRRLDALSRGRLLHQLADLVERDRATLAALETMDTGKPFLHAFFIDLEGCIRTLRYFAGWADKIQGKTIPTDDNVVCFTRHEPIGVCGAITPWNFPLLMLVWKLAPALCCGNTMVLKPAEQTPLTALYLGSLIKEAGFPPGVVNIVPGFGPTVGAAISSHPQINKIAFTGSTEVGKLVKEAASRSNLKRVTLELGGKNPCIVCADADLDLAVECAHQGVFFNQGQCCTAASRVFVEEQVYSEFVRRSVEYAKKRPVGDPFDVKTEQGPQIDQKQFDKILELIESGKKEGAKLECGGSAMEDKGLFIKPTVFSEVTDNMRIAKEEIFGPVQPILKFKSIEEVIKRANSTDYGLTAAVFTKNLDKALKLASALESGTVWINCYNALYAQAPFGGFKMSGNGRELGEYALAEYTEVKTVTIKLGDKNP
Nature of the assay: Inhibition of recombinant human ALDH1A3 using propionaldehyde as substrate at 100 uM preincubated for 2 mins with NAD+ followed by substrate addition by UV-Vis spectrophotometric analysis.

Assay [7] has as its target T6, Aldehyde dehydrogenase X, mitochondrial (Homo sapiens) (UniProt P30837).
T6 sequence (whole entry): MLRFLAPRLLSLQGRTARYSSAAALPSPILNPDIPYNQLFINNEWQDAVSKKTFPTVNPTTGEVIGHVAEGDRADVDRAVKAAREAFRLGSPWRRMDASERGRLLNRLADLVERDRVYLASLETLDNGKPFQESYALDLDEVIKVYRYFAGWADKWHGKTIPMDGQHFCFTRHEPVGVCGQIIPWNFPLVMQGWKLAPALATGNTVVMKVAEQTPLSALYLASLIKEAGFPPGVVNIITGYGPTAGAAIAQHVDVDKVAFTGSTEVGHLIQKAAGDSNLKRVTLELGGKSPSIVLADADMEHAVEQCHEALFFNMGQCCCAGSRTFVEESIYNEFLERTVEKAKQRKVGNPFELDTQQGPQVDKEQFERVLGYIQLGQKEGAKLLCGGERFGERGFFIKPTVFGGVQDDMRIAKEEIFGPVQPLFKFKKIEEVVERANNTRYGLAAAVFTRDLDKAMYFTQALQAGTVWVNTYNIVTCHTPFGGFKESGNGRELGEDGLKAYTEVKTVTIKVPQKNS
Nature of the assay: Inhibition of recombinant human ALDH1B1 using propionaldehyde as substrate at 100 uM preincubated for 2 mins with NAD+ followed by substrate addition by UV-Vis spectrophotometric analysis.

The target of assay [8] is T3, Aldehyde dehydrogenase, dimeric NADP-preferring (Homo sapiens). Nature of the assay: Activation of recombinant human ALDH3A1 using benzaldehyde as substrate at 100 uM preincubated for 2 mins with NAD+ followed by substrate addition by UV-Vis spectrophotometric analysis.
For assay [9], the target named is T5, Retinaldehyde dehydrogenase 3 (Homo sapiens). Nature of the assay: Activation of recombinant human ALDH1A3 using propionaldehyde as substrate at 100 uM preincubated for 2 mins with NAD+ followed by substrate addition by UV-Vis spectrophotometric analysis.
For assay [10], the target named is T3, Aldehyde dehydrogenase, dimeric NADP-preferring (Homo sapiens). Nature of the assay: Activation of recombinant human ALDH3A1 using benzaldehyde as substrate at 20 uM preincubated for 2 mins with NAD+ followed by substrate addition by UV-Vis spectrophotometric analysis.
The target in assay [11] is T5, Retinaldehyde dehydrogenase 3 (Homo sapiens). Nature of the assay: Activation of recombinant human ALDH1A3 using propionaldehyde as substrate at 20 uM preincubated for 2 mins with NAD+ followed by substrate addition by UV-Vis spectrophotometric analysis.
The target in assay [12] is T4, Retinal dehydrogenase 2 (Homo sapiens). Nature of the assay: Activation of recombinant human ALDH1A2 using propionaldehyde as substrate at 20 uM preincubated for 2 mins with NAD+ followed by substrate addition by UV-Vis spectrophotometric analysis.
Assay [13] shares this target. Put plainly: Activation of recombinant human ALDH1A2 using propionaldehyde as substrate at 100 uM preincubated for 2 mins with NAD+ followed by substrate addition by UV-Vis spectrophotometric analysis.
Assay [14] has as its target T7, Retinaldehyde dehydrogenase 3 (Homo sapiens, UniProt P47895).
T7 sequence (P47895 whole entry): T5 sequence (whole entry)
Nature of the assay: Inhibition of recombinant human ALDH1A3 using propionaldehyde as substrate preincubated for 2 mins with NAD+ followed by substrate addition by UV-Vis spectrophotometric analysis.

Assay [15] addresses T2, Aldehyde dehydrogenase, mitochondrial (Homo sapiens). Put plainly: Activation of recombinant human ALDH2 using propionaldehyde as substrate at 20 uM preincubated for 2 mins with NAD+ followed by substrate addition by UV-Vis spectrophotometric analysis.
Assay [16] deals with T8, Aldehyde dehydrogenase, mitochondrial (Homo sapiens, UniProt P05091).
T8 sequence (P05091 whole entry): T2 sequence (whole entry)
Nature of the assay: Inhibition of recombinant human ALDH2 using propionaldehyde as substrate preincubated for 2 mins with NAD+ followed by substrate addition by UV-Vis spectrophotometric analysis.

Take `Cn1c(=O)c2c(ncn2C)n(C)c1=O`: the result in [1] was inactive. The inhibition result in assay [2], in [3], in [4], in assay [5], in [6] and in [7] was “inactive” throughout.
Consider `Cc1ccc(Cn2c(CN3CCN(c4ccccc4)CC3)nc3c2c(=O)n(C)c(=O)n3C)cc1`, for which the outcome in assay [8] and in [9] was Active. For the same compound, the Activity in [10] and in assay [11] was less than 10% throughout.
In the case of `Cn1c(=O)c2[nH]cnc2n(C)c1=O`, the inhibition result in assay [2], in [3], in [6] and in assay [7] was “inactive” each time.
Consider `Cc1cccc(Cn2c(CN3CCN(C(=O)c4ccco4)CC3)nc3c2c(=O)n(C)c(=O)n3C)c1`, for which the Activity in assay [12], in [10] and in [11] was less than 10% in each case. For the same compound, the outcome in assay [9] and in [13] was Active. Moreover, the inhibition result in [3] is “inactive”.
`CCC1CCCCN1Cc1nc2c(c(=O)n(C)c(=O)n2C)n1Cc1cccc(C)c1` (centres undefined): the outcome in [9] was Active. Also, the inhibition entry in assay [3] was “inactive”. The Activity in assay [10] and in assay [11] was less than 10% each time.
The IC50 is the concentration that gives 50% inhibition. With `CC(C)CCn1c(CN2CCC(C)CC2)nc2c1c(=O)n(C)c(=O)n2C`, the IC50 in assay [14] and in [16] was more than 100 µM each time. In addition, the Activity in [15], in assay [10] and in [11] was less than 10% in each case. Also, the inhibition result in [3] is “inactive”.
With `CC(C)CCn1c(CN2CCC(C(N)=O)CC2)nc2c1c(=O)n(C)c(=O)n2C`, the result in assay [8] and in [9] was Active. Moreover, the Activity in [10] and in assay [11] was less than 10% throughout.
For `CCN1CCN(Cc2nc3c(c(=O)n(C)c(=O)n3C)n2CCC(C)C)CC1`, the inhibition result in assay [3] and in [6] was “inactive” in each case. For the same compound, the Activity in assay [10] and in assay [11] was less than 10% each time.
